In PubChem BioAssay (NCI):
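Grown in 96-well plates, cells were treated for 48 hours with each compound at five concentrations. Insufficient inhibition: endpoint recorded as highest concentration tested. Here, GI50 denotes the concentration required for 50% inhibition of growth. TGI is the concentration that stops growth completely.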

How the values were obtained:
Assay in all cases: growth of human tumour cells (NCI), 48 h
BT-549 breast = system: BT-549 breast
SK-OV-3 ovarian = system: SK-OV-3 ovarian
HCT-15 colon = system: HCT-15 colon
UACC-257 melanoma = system: UACC-257 melanoma
RXF 393 renal = system: RXF 393 renal
CAKI-1 renal = system: CAKI-1 renal
SF-295 CNS = system: SF-295 CNS
HL-60(TB) leukemia = system: HL-60(TB) leukemia
M14 melanoma = system: M14 melanoma
UACC-62 melanoma = system: UACC-62 melanoma
HCC-2998 colon = system: HCC-2998 colon
HCT-116 colon = system: HCT-116 colon
OVCAR-5 ovarian = system: OVCAR-5 ovarian
SR leukemia = system: SR leukemia
SW-620 colon = system: SW-620 colon
T-47D breast = system: T-47D breast
A549 NSCLC = system: A549 NSCLC
SF-268 CNS = system: SF-268 CNS
SNB-75 CNS = system: SNB-75 CNS
786-0 renal = system: 786-0 renal
LOX IMVI melanoma = system: LOX IMVI melanoma
COLO 205 colon = system: COLO 205 colon
MCF7 breast = system: MCF7 breast
CCRF-CEM leukemia = system: CCRF-CEM leukemia
DU-145 prostate = system: DU-145 prostate
TK-10 renal = system: TK-10 renal
NCI-H460 lung = system: NCI-H460 lung
HOP-92 NSCLC = system: HOP-92 NSCLC
MDA-MB-435 = system: MDA-MB-435

Question: Which results are given for `Cn1ncc2c(Nc3ccc(Br)cc3)nc(Nc3ccc(Br)cc3)nc21`?
Answer: TGI (BT-549 breast): 19.4 µM; GI50 (SK-OV-3 ovarian): 10.9 µM; TGI (SK-OV-3 ovarian): 23.5 µM; GI50 (HCT-15 colon): 2.2 µM; TGI (HCT-15 colon): 5.62 µM; GI50 (UACC-257 melanoma): 5.32 µM; TGI (UACC-257 melanoma): 18.8 µM; GI50 (RXF 393 renal): 2.81 µM; TGI (RXF 393 renal): 7.57 µM; GI50 (CAKI-1 renal): 1.87 µM; TGI (CAKI-1 renal): 4.49 µM; GI50 (SF-295 CNS): 1.82 µM; TGI (SF-295 CNS): 4.03 µM; GI50 (HL-60(TB) leukemia): 1.44 µM; TGI (HL-60(TB) leukemia): 5.85 µM; GI50 (M14 melanoma): 2.09 µM; TGI (M14 melanoma): 4.63 µM; GI50 (UACC-62 melanoma): 2.32 µM; TGI (UACC-62 melanoma): 6.82 µM; GI50 (HCC-2998 colon): 1.94 µM; TGI (HCC-2998 colon): 3.98 µM; GI50 (HCT-116 colon): 3.22 µM; TGI (HCT-116 colon): 11.9 µM; GI50 (OVCAR-5 ovarian): 11.3 µM; TGI (OVCAR-5 ovarian): 24.1 µM; GI50 (SR leukemia): 1.69 µM; TGI (SR leukemia): 5.21 µM; GI50 (SW-620 colon): 2.93 µM; TGI (SW-620 colon): 8.97 µM; GI50 (T-47D breast): 2.7 µM; TGI (T-47D breast): 14.6 µM; GI50 (A549 NSCLC): 4.46 µM; TGI (A549 NSCLC): 30.8 µM; GI50 (SF-268 CNS): 5.11 µM; TGI (SF-268 CNS): 15.8 µM; GI50 (SNB-75 CNS): 2.23 µM; TGI (SNB-75 CNS): 12.5 µM; GI50 (786-0 renal): 2.4 µM; TGI (786-0 renal): 5.32 µM; GI50 (LOX IMVI melanoma): 1.77 µM; TGI (LOX IMVI melanoma): 3.36 µM; GI50 (COLO 205 colon): 1.65 µM; TGI (COLO 205 colon): 3.2 µM; GI50 (MCF7 breast): 2.61 µM; TGI (MCF7 breast): 10.9 µM; GI50 (CCRF-CEM leukemia): 3.23 µM; TGI (CCRF-CEM leukemia): 22 µM; GI50 (DU-145 prostate): 3.65 µM; TGI (DU-145 prostate): 13 µM; GI50 (TK-10 renal): 4.75 µM; TGI (TK-10 renal): 19 µM; GI50 (NCI-H460 lung): 2.23 µM; TGI (NCI-H460 lung): 5.23 µM; GI50 (HOP-92 NSCLC): 1.66 µM; TGI (HOP-92 NSCLC): 5.23 µM; GI50 (MDA-MB-435): 2.86 µM; TGI (MDA-MB-435): 10.7 µM
